The CheMixHub drug solubility set

Assay: xn = mol fraction of the nth substance listed, in the solute-free solvent

O=c1cc(CBr)c2ccccc2[nH]1 + CN1CCCC1=O + O
solubility (g/100 g solution)
Settings | 278.15 K | 283.15 K | 288.15 K | 293.15 K | 298.15 K | 303.15 K | 308.15 K | 313.15 K | 318.15 K
x2 = 0.0198 | 0.0293 | 0.0392 | 0.0514 | 0.0682 | 0.0873 | 0.117 | 0.149 | 0.189 | 0.234
x2 = 0.04347 | 0.107 | 0.136 | 0.176 | 0.223 | 0.281 | 0.361 | 0.442 | 0.546 | 0.67
x2 = 0.07228 | 0.271 | 0.344 | 0.428 | 0.538 | 0.646 | 0.804 | 0.971 | 1.16 | 1.41
x2 = 0.1081 | 0.494 | 0.611 | 0.762 | 0.924 | 1.12 | 1.37 | 1.66 | 1.97 | 2.35
x2 = 0.1538 | 0.764 | 0.928 | 1.13 | 1.36 | 1.65 | 1.94 | 2.3 | 2.71 | 3.16
x2 = 0.2143 | 1.04 | 1.24 | 1.5 | 1.76 | 2.11 | 2.47 | 2.9 | 3.34 | 3.89
x2 = 0.2979 | 1.24 | 1.48 | 1.76 | 2.07 | 2.46 | 2.87 | 3.32 | 3.82 | 4.37
x2 = 0.421 | 1.38 | 1.62 | 1.91 | 2.24 | 2.57 | 2.99 | 3.44 | 3.93 | 4.47
x2 = 0.6207 | 1.42 | 1.64 | 1.9 | 2.19 | 2.5 | 2.89 | 3.26 | 3.7 | 4.17

CC(C)C(=O)Nc1ccc([N+](=O)[O-])c(C(F)(F)F)c1 + CC#N + O
solubility (g/100 g solution)
Settings | 278.15 K | 283.15 K | 288.15 K | 293.15 K | 298.15 K | 303.15 K | 308.15 K | 313.15 K | 318.15 K | 323.15 K
x2 = 0.04651 | 0.0051 | 0.007 | 0.00931 | 0.0126 | 0.0169 | 0.0223 | 0.0298 | 0.0389 | 0.0503 | 0.0645
x2 = 0.0989 | 0.0498 | 0.0667 | 0.0861 | 0.112 | 0.148 | 0.193 | 0.248 | 0.313 | 0.402 | 0.508
x2 = 0.1583 | 0.303 | 0.387 | 0.487 | 0.609 | 0.767 | 0.951 | 1.17 | 1.44 | 1.74 | 2.11
x2 = 0.2264 | 1.08 | 1.36 | 1.68 | 2.08 | 2.57 | 3.16 | 3.86 | 4.68 | 5.62 | 6.78
x2 = 0.3051 | 3.19 | 3.94 | 4.76 | 5.74 | 6.94 | 8.26 | 9.78 | 11.5 | 13.6 | 15.8
x2 = 0.397 | 6.71 | 8.14 | 9.68 | 11.6 | 13.8 | 16.2 | 19.1 | 22.2 | 25.3 | 28.7
x2 = 0.506 | 12.4 | 14.9 | 17.7 | 20.4 | 23.6 | 27.3 | 31.1 | 35.1 | 39.3 | 43.6
x2 = 0.6372 | 18.2 | 21.8 | 25.4 | 29.4 | 33.6 | 38 | 42.9 | 47.8 | 52.8 | 57.8
x2 = 0.798 | 24.1 | 28.7 | 33.3 | 38 | 43.2 | 48.7 | 54 | 59.6 | 64.5 | 69.8

CC1=NNC(=O)N(N=Cc2cccnc2)C1 + CS(C)=O + CC(C)O
solubility (g/100 g solution)
Settings | 293.15 K | 298.15 K | 303.15 K | 308.15 K | 313.15 K | 318.15 K
x2 = 0.1614 | 0.482 | 0.555 | 0.623 | 0.721 | 0.847 | 0.956
x2 = 0.3392 | 0.992 | 1.11 | 1.25 | 1.39 | 1.57 | 1.77
x2 = 0.5359 | 1.42 | 1.59 | 1.78 | 2.05 | 2.32 | 2.58
x2 = 0.7549 | 1.8 | 2.01 | 2.28 | 2.59 | 2.91 | 3.28

NC(N)=C([N+](=O)[O-])[N+](=O)[O-] + CS(C)=O + CCC(C)=O
solubility (g/100 g solution)
Settings | 293.15 K | 298.15 K | 303.15 K | 308.15 K | 313.15 K | 318.15 K | 323.15 K | 328.15 K | 333.15 K
x2 = 0.1228 | 2.96 | 3.02 | 3.23 | 3.43 | 3.66 | 3.88 | 4.15 | 4.41 | 4.69
x2 = 0.2395 | 6.6 | 7.02 | 7.36 | 7.71 | 8.11 | 8.5 | 8.9 | 9.32 | 9.81
x2 = 0.3506 | 10.8 | 11.4 | 11.7 | 12.2 | 12.7 | 13.1 | 13.6 | 14.2 | 14.8
x2 = 0.4565 | 14.7 | 15.3 | 15.7 | 16.2 | 16.7 | 17.2 | 17.8 | 18.4 | 19
x2 = 0.5575 | 18.4 | 19.1 | 19.6 | 20 | 20.6 | 21.1 | 21.7 | 22.4 | 23
x2 = 0.6539 | 21.6 | 22.1 | 22.7 | 23.2 | 23.8 | 24.4 | 25 | 25.6 | 26.4
x2 = 0.7462 | 24.1 | 24.8 | 25.3 | 25.7 | 26.3 | 26.9 | 27.5 | 28.1 | 28.8
x2 = 0.8344 | 26.2 | 26.7 | 27.2 | 27.7 | 28.2 | 28.8 | 29.4 | 30 | 30.7
x2 = 0.9189 | 27.9 | 28.7 | 29.2 | 29.6 | 30.1 | 30.6 | 31.2 | 31.9 | 32.5

COC(=O)Nc1nc2ccccc2[nH]1 + CN(C)C=O + O
solubility (g/100 g solution)
Settings | 278.15 K | 283.15 K | 288.15 K | 293.15 K | 298.15 K | 303.15 K | 308.15 K | 313.15 K | 318.15 K
x2 = 0.02669 | 0.00314 | 0.0037 | 0.00435 | 0.00513 | 0.00608 | 0.0069 | 0.00793 | 0.00907 | 0.0104
x2 = 0.05816 | 0.0129 | 0.0149 | 0.017 | 0.0196 | 0.0227 | 0.0252 | 0.0284 | 0.0319 | 0.0358
x2 = 0.09552 | 0.0278 | 0.0343 | 0.0397 | 0.045 | 0.0511 | 0.0563 | 0.0627 | 0.0696 | 0.0773
x2 = 0.1411 | 0.0542 | 0.0604 | 0.0678 | 0.076 | 0.0856 | 0.0938 | 0.103 | 0.114 | 0.126
x2 = 0.1978 | 0.0795 | 0.0881 | 0.098 | 0.109 | 0.122 | 0.133 | 0.147 | 0.161 | 0.175
x2 = 0.2702 | 0.108 | 0.12 | 0.133 | 0.147 | 0.163 | 0.177 | 0.194 | 0.211 | 0.23
x2 = 0.3643 | 0.144 | 0.159 | 0.174 | 0.192 | 0.212 | 0.23 | 0.25 | 0.271 | 0.294
x2 = 0.4967 | 0.186 | 0.205 | 0.223 | 0.244 | 0.268 | 0.29 | 0.315 | 0.339 | 0.365
x2 = 0.6912 | 0.219 | 0.24 | 0.259 | 0.282 | 0.308 | 0.333 | 0.359 | 0.387 | 0.416
